Legend:
UM-SCC-104 = assay: Immunoblot of p53 and p21 in UM-SCC-104 cells; type: cell-based, human; conditions: 24 hours
C51S cells = type: cell-based; conditions: 48 h, KTI-240 3 μM, etoposide 2 μM
RPE-1 cells = type: cell-based; conditions: p53 wild-type, HPV-negative
SiHa-C51S cells = type: cell-based; conditions: 24 hours
SiHa cells [1] = assay: Senescence SA-β-gal assay, SiHa; type: cell-based, human; conditions: 48 h, KTI-240 3 μM, etoposide 2 μM
SiHa cells [2] = type: cell-based; conditions: 24 hours

COc1cc([C@@H]2c3cc4c(cc3[C@@H](O[C@@H]3O[C@@H]5CO[C@@H](C)O[C@H]5[C@H](O)[C@H]3O)[C@H]3COC(=O)[C@H]23)OCO4)cc(OC)c1O [etoposide]
p53 protein (immunoblot) (UM-SCC-104): did not induce p53
SA-β-gal senescence marker (C51S cells): induced
p53 protein levels (Western blot) (RPE-1 cells): induced p53 in both cell lines
p53 protein levels (Western blot) (SiHa-C51S cells): etoposide did
SA-β-gal senescence marker (SiHa cells [1]): induced
p53 protein levels (Western blot) (SiHa cells [2]): induced p53 in both cell lines

Reference: paper PMC13250552 (Proceedings of the National Academy of Sciences of the …, 2026)
